# Test results: ChEMBL document CHEMBL1154247, “Biscarpamontamines A and B, an aspidosperma-iboga bisindole alkaloid and an aspidosperma-aspidosperma bisindole alkaloid, from Tabernaemontana sphaerocarpa” (J Nat Prod, 2009)
# Assays:
# Format in all cases: functional, cell-based
# NCI-H226 = assay: Cytotoxicity against human NCI-H226 cells after 48 hrs by MTT assay; settings: NCI-H226, 48 h
# MCF7 = assay: Cytotoxicity against human MCF7 cells after 48 hrs by MTT assay; settings: MCF7, 48 h
# RPMI-8226 = assay: Cytotoxicity against human RPMI8226 cells after 48 hrs by MTT assay; settings: RPMI-8226, 48 h
# HL-60 = assay: Cytotoxicity against human HL60 cells after 48 hrs by MTT assay; settings: HL-60, 48 h
# HCT-116 = assay: Cytotoxicity against human HCT116 cells after 48 hrs by MTT assay; settings: HCT-116, 48 h
smiles,measurement,setting,value
CC[C@H]1C[C@H]2C[C@@]3(C(=O)OC)c4c(c5cc(OC)ccc5n4CC4=C[C@@]5(CCO)CC(C(=O)OC)=C6Nc7ccccc7[C@@]67CCN(C4)[C@@H]57)CCN([C@@H]2O)[C@@H]13 [BISCARPAMONTAMINE A],IC50,NCI-H226,16.9 µM
same,IC50,MCF7,25.3 µM
same,IC50,RPMI-8226,27.9 µM
same,IC50,HL-60,12.2 µM
same,IC50,HCT-116,14 µM
CC[C@]1(O)C[C@@H]2CN(CCc3c([nH]c4ccccc34)[C@@](C(=O)OC)(c3cc4c(cc3OC)N(C)[C@H]3[C@@](O)(C(=O)OC)[C@H](OC(C)=O)[C@]5(CC)C=CCN6CC[C@]43[C@@H]65)C2)C1 [VINBLASTINE],IC50,HL-60,0.0016 µM
CC[C@]1(O)C[C@H]2CN(CCc3c([nH]c4ccccc34)[C@@](C(=O)OC)(c3cc4c(cc3OC)N(C=O)[C@H]3[C@@](O)(C(=O)OC)[C@H](OC(C)=O)[C@]5(CC)C=CCN6CC[C@]43[C@@H]65)C2)C1 [VINCRISTINE],IC50,HL-60,0.00087 µM
